Reference: patent publication US6863865B2, “Sterilization of pharmaceuticals” (Breath Limited, priority 2000, dated 2005)

Key:
[1] = HPLC evaluation of impurities after high temperature short time (HTST) sterilization; type: physicochemical; settings: Fo exposures up to 24
Source text: The formulation to be sterilized was passed through narrow lines of pharmaceutical quality stainless steel in which the sample was rapidly raised to an elevated temperature, maintained at this holding temperature for a period of time, then rapidly returned to ambient temperature. Parameters described in Table 1 are the BMRT (bulk mean retention time), that is the time between the sample being raised above ambient temperature and being returned to ambient temperature, and the FFERT, the time for which the sample is maintained at the elevated temperature. […] The theoretical kill rate, Fo, may be calculated from the FFERT and the elevated temperature. The value of Fo is optimally greater than 10, but values greater than 8 are acceptable for the production of sterile formulations.
This example was carried out to evaluate the effect of HTST on the chemical purity of pharmaceutical preparations by assessing the levels of degradation obtained in samples exposed to varying Fo (effective killing times) times. For the purposes of these experiments, budesonide suspensions were used in the evaluation.
The samples were then evaluated using high performance liquid chromatography to assess the level of impurities present.

[2] = Treatment with high intensity light (Pure-bright process); type: physicochemical; settings: light at 900 times the intensity of sunlight at sea level; formulations produced as in Example 1
Source text: An alternative method of sterilization of a budesonide suspension is treatment with high intensity light. The so-called “Pure-bright” process allows treatment with light at 900 times the intensity of sunlight at sea level.

[3] = cited from earlier work

- stability of budesonide to high intensity light [2]: completely destroyed
SMILES: CCCC1O[C@@H]2C[C@H]3[C@@H]4CCC5=CC(=O)C=C[C@]5(C)[C@H]4[C@@H](O)C[C@]3(C)[C@]2(C(=O)CO)O1 (stereo partly drawn) [budesonide]
- effect on chemical stability [1]: no adverse effect
- stability to gamma-irradiation [3]: destroyed
